Experimental data published in US11504362B2, “Liquid dosage forms to treat cancer” (Exelixis, Inc., priority 2017, dated 2022).
“And” between values parts separate entries of the source, which are not always exact repeats. Equal values may be shown once. “Also recorded” adds a separate entry of the source. Read-outs that look alike come from different tables or passages of the source.

Key:
[1] = male, human, in vivo
Experimental: (§1) Pharmacokinetics: Serial blood, urine, and feces were collected at specified times following dosing.
(§2) All samples collected for radioactivity analysis were analyzed for total radioactivity.
Blood samples (4 mL) for whole blood analysis of total radioactivity were collected within 15 minutes pre-dose and at 1, 2, 4, 8, 14, 24, and 72 hours post-dose. Prior to study initiation, the Celerion Scintillation Laboratory supplied to the Celerion clinic complete written instructions for collection, handling, and processing of samples. Samples collected were used to determine the percentage of radioactivity associated with erythrocytes in whole blood over time (calculated only for time points that whole blood was collected).
Individual dosing containers (including the dosage form) were analyzed pre-dose and post-dose for radioactivity, with the (post-dose−pre-dose) difference being the administered dose. Whole blood, plasma, urine, feces, and emesis (if applicable) were analyzed for radioactivity content by liquid scintillation counting procedures. Whole blood and fecal samples were dried and oxidized prior to counting. Detailed reports of scintillation counting method and results for total radioactivity accompany the clinical study report. […]
The Cmax and time to peak concentration (tmax) were directly determined from the observed blood/plasma concentrations data. […]

[2] = Percentage of 14C radioactivity associated with erythrocytes in whole blood (ETR); type: in vivo, human; conditions: single 175 mg oral dose
Experimental: To determine the percentage of radioactivity associated with erythrocytes in whole blood over time (ETR; calculated only for time points that whole blood is collected), the following was calculated:
The amount of ^14C radioactivity in plasma versus whole blood, adjusted for the hematocrit, at the specific time points of comparison (ETR=Xe/Xb=1−[Cp*(1−Hct)/Cb], where Xe and Xb stands for amount of radioactivity in erythrocyte or whole blood, respectively. Hematocrit values for Days-1, 2, and 4 were averaged for use in this calculation.
Blood samples (4 mL) for whole blood analysis of total radioactivity were collected within 15 minutes pre-dose and at 1, 2, 4, 8, 14, 24, and 72 hours post-dose. […] Samples collected were used to determine the percentage of radioactivity associated with erythrocytes in whole blood over time (calculated only for time points that whole blood was collected).
To determine the percentage of radioactivity associated with erythrocytes in whole blood over time (calculated only for time points where whole blood was collected), the following was calculated: the amount of radioactivity in plasma versus whole blood, adjusted for the hematocrit, at the specific time points of comparison (ETR=Xe/Xb=1−[Cp*(1-Hct)/Cb], where Cp stands for amount of radioactivity in plasma and Cb stands for the amount of radioactivity in blood and Hct stands for hematocrit value. Hematocrit values for Days-1, 2, and 4 were averaged for use in this calculation.

[3] = Plasma pharmacokinetics of XL184 and metabolites by LC/MS/MS method; conditions: human, in vivo
Experimental: as §1, §2
Detailed reports of the bioanalytical methodologies and results accompany the clinical study report.
The other minor metabolite in plasma, p-Fluoroaniline, was analyzed by Exelixis using a validated LC/MS/MS method.
PK variables were computed using WinNonlin Professional, version 5.2.

clinical = conditions: human, in vivo
Experimental: Samples for 2 subjects were used for the investigation study. Therefore, only 6 subjects' PK profiles were determined using a radio-quantitation method.

[4] = Safety evaluation (AEs, vital signs, ECG, laboratory tests) in Phase 1 mass balance study; type: in vivo, human
Experimental: Safety: Safety evaluations included assessments of AEs, vital signs, electrocardiogram (ECG), laboratory tests, and concomitant medications. Adverse event seriousness, severity grade, and relationship to study treatment were assessed by the investigator. Severity grade was defined by the National Cancer Institute Common Terminology Criteria for Adverse Events (CTCAE) version 4.0.
Adverse event terms were standardized using the Medical Dictionary for Regulatory Activities and tabulated by system organ class and preferred term.

[5] = cited from earlier work; for CL/F / t1/2 / Tmax / Cmax: single oral 140 mg FBE; for CL/F / t1/2 / Cmax: mean ± CV %; for Tmax: median (minimum, maximum); for Cmax: plasma, n = 72
[6] = rodent and non-rodent models; cited from earlier work
RET = conditions: administration to mice; Yakes, et al. 2011; cited from earlier work
[7] = system: tumor models (human medullary thyroid cancer, human breast cancer, and rat glioma); conditions: cited from earlier work
[8] = po, 175 mg, Plasma concentration of XL184 by LC/MS/MS, single 175 mg oral XL184 L-malate, healthy male subjects, […], individual subject

COc1cc2nccc(Oc3ccc(NC(=O)C4(C(=O)Nc5ccc(F)cc5)CC4)cc3)c2cc1OC [XL184, N-(4-{[6,7-bis(methyloxy)quinolin-4-yl]oxy}phenyl)-N′-(4-fluorophenyl)cyclopropane-1,1-dicarboxamide]
kel of total radioactivity [1]: 0.00308 h⁻¹
Percentage of 14C Radioactivity Associated with Erythrocytes in Whole Blood (ETR) ([2]; 1.00 h, Max (N=8)): 14%
Percentage of 14C Radioactivity Associated with Erythrocytes in Whole Blood (ETR) ([2]; 1.00 h, Mean (N=8)): 7.08%
Percentage of 14C Radioactivity Associated with Erythrocytes in Whole Blood (ETR) ([2]; 1.00 h, Median (N=8)): 8.0%
Percentage of 14C Radioactivity Associated with Erythrocytes in Whole Blood (ETR) ([2]; 1.00 h, Min (N=8)): −3.4%
Percentage of 14C Radioactivity Associated with Erythrocytes in Whole Blood (ETR) ([2]; 1.00 h, individual subjects): 6.87% and 14.1% (2×) and −3.37% and 9.27% and 3.64% and 9.17% and 2.89%
Percentage of 14C Radioactivity Associated with Erythrocytes in Whole Blood (ETR) ([2]; 2.00 h, GM, geometric mean (N=8)): 7.30%
Percentage of 14C Radioactivity Associated with Erythrocytes in Whole Blood (ETR) ([2]; 2.00 h, Max (N=8)): 14%
Percentage of 14C Radioactivity Associated with Erythrocytes in Whole Blood (ETR) ([2]; 2.00 h, Mean (N=8)): 7.85%
Percentage of 14C Radioactivity Associated with Erythrocytes in Whole Blood (ETR) ([2]; 2.00 h, Median (N=8)): 6.7%
Percentage of 14C Radioactivity Associated with Erythrocytes in Whole Blood (ETR) ([2]; 2.00 h, Min (N=8)): 4.1%
Percentage of 14C Radioactivity Associated with Erythrocytes in Whole Blood (ETR) ([2]; 2.00 h, individual subjects): 6.90% and 13.7% and 6.40% and 4.14% and 5.07% and 5.90% and 10.3% and 10.5%
Percentage of 14C Radioactivity Associated with Erythrocytes in Whole Blood (ETR) ([2]; 4.00 h, GM, geometric mean (N=8)): 5.96%
Percentage of 14C Radioactivity Associated with Erythrocytes in Whole Blood (ETR) ([2]; 4.00 h, Max (N=8)): 9.0%
Percentage of 14C Radioactivity Associated with Erythrocytes in Whole Blood (ETR) ([2]; 4.00 h, Mean (N=8)): 6.40%
Percentage of 14C Radioactivity Associated with Erythrocytes in Whole Blood (ETR) ([2]; 4.00 h, Median (N=8)): 6.5%
Percentage of 14C Radioactivity Associated with Erythrocytes in Whole Blood (ETR) ([2]; 4.00 h, Min (N=8)): 2.1%
Percentage of 14C Radioactivity Associated with Erythrocytes in Whole Blood (ETR) ([2]; 4.00 h, individual subjects): 8.27% and 6.45% and 6.26% and 8.96% and 6.74% and 2.05% and 6.55% and 5.88%
Percentage of 14C Radioactivity Associated with Erythrocytes in Whole Blood (ETR) ([2]; 8.00 h, GM, geometric mean (N=8)): 10.9%
Percentage of 14C Radioactivity Associated with Erythrocytes in Whole Blood (ETR) ([2]; 8.00 h, Max (N=8)): 17%
Percentage of 14C Radioactivity Associated with Erythrocytes in Whole Blood (ETR) ([2]; 8.00 h, Mean (N=8)): 12.2%
Percentage of 14C Radioactivity Associated with Erythrocytes in Whole Blood (ETR) ([2]; 8.00 h, Median (N=8)): 13%
Percentage of 14C Radioactivity Associated with Erythrocytes in Whole Blood (ETR) ([2]; 8.00 h, Min (N=8)): 3.4%
Percentage of 14C Radioactivity Associated with Erythrocytes in Whole Blood (ETR) ([2]; 8.00 h, individual subjects): 12.8% and 17.1% and 13.6% and 17.2% and 12.0% and 3.37% and 15.4% and 6.19%
Percentage of 14C Radioactivity Associated with Erythrocytes in Whole Blood (ETR) ([2]; 14.00 h, GM, geometric mean (N=8)): 11.7%
Percentage of 14C Radioactivity Associated with Erythrocytes in Whole Blood (ETR) ([2]; 14.00 h, Max (N=8)): 17%
Percentage of 14C Radioactivity Associated with Erythrocytes in Whole Blood (ETR) ([2]; 14.00 h, Mean (N=8)): 12.3%
Percentage of 14C Radioactivity Associated with Erythrocytes in Whole Blood (ETR) ([2]; 14.00 h, Median (N=8)): 13%
Percentage of 14C Radioactivity Associated with Erythrocytes in Whole Blood (ETR) ([2]; 14.00 h, Min (N=8)): 6.1%
Percentage of 14C Radioactivity Associated with Erythrocytes in Whole Blood (ETR) ([2]; 14.00 h, individual subjects): 6.13% and 17.0% and 12.1% and 7.45% and 12.7% and 14.1% and 14.0% and 14.9%
Distribution of radioactivity between plasma and red blood cells [2]: present primarily in plasma and not markedly associated with red blood cells
concentration at 8 h ([3]; po, 175 mg, Plasma Concentrations of XL184 by LC/MS/MS Method, single 175 mg oral dose, Min (N=8)): 267 ng/mL
concentration at 8 h ([3]; po, 175 mg, Plasma Concentrations of XL184 by LC/MS/MS Method, single 175 mg oral dose, individual subjects): 532 ng/mL
concentration at 14 h ([3]; po, 175 mg, Plasma Concentrations of XL184 by LC/MS/MS Method, 14.00 h, single 175 mg oral dose, individual subjects): 488 ng/mL
concentration at 48 h [3, 8]: 352 ng/mL
concentration at 120 h [3, 8]: 156 ng/mL
AUC0-24 ([3]; male): 14300 ± 2600 (18) h · ng/mL
AUC0-72 ([3]; male): 35000 ± 6770 (19) h · ng/mL
AUC0-inf ([3]; male): 68000 ± 6910 (10) h · ng/mL
AUC0-t ([3]; male): 67200 ± 6880 (10) h · ng/mL
Tmax ([3]; male): 1.49 (1.00, 3.00) h
Tmax ([3]; male, Tmax): ~1.49 h
AUC0-t ([3]; male, po, 175 mg, AUC0-24): 17600 ng·h/mL
AUC0-t ([3]; male, po, 175 mg, AUC0-72): 46800 ng·h/mL
AUC0-inf ([3]; male, po, 175 mg, AUC0-inf): 73100 ng·h/mL
AUC0-t ([3]; male, po, 175 mg, AUC0-t): 72900 ng·h/mL
Cmax ([3]; male, po, 175 mg, Cmax): 1250 ng/mL
half-life ([3]; male, po, 175 mg, t1/2): 69 h
AUC0-24 (clinical): 10700 ± 3170 h · ngEq/mL
AUC0-72 (clinical): 23800 ± 9340 h · ngEq/mL
AUC0-inf (clinical): 40300 ± 12300 h · ngEq/mL
AUC0-t (clinical): 38100 ± 12800 h · ngEq/mL
concentration at 0.5 h (clinical; po, 175 mg, Plasma concentration, 0.50 h, individual subject, single 175 mg oral [14C]-XL184 (100 μCi), healthy male subjects, radio-quantitative method): 283 ng/mL
concentration at 5 h (clinical; po, 175 mg, Plasma concentration, 5.00 h, individual subject, single 175 mg oral [14C]-XL184 (100 μCi), healthy male subjects, radio-quantitative method): 512 ng/mL
concentration at 336 h (clinical; po, 175 mg, Plasma concentration, 336.00 h, individual subject, single 175 mg oral [14C]-XL184 (100 μCi), healthy male subjects, radio-quantitative method): 10.3 ng/mL
concentration at 72 h (clinical; po, 175 mg, Plasma concentration, individual subject, single 175 mg oral [14C]-XL184 (100 μCi), healthy male subjects, radio-quantitative method): 101 ng/mL
ke1 (clinical; male): 0.0112 ± 0.0053 h⁻¹
Tmax (clinical; male, Tmax): ~1.99 h
concentration at 72 h (clinical; male, po, 175 mg, Plasma concentration, Mean, N=6, single 175 mg oral [14C]-XL184 (100 μCi), healthy male subjects, radio-quantitative method): 159 ng/mL
concentration at 72 h (clinical; male, po, 175 mg, Plasma concentration, Median, N=6, single 175 mg oral [14C]-XL184 (100 μCi), healthy male subjects, radio-quantitative method): 162 ng/mL
Total number of TEAEs ([4]; 8 subjects): 36
TEAEs resolved within 1 to 3 days ([4]; 31/36): 86%
Severity of one event of treatment related dizziness ([4]; CTCAE version 4.0): moderate (CTCAE grade 2)
Severity of the majority of TEAEs ([4]; CTCAE version 4.0): mild in severity (CTCAE grade 1)
Laboratory values ([4]; changes from baseline): no clinically significant changes from baseline in any laboratory values; also recorded: no notable clinical laboratory findings
Subjects reporting TEAEs assessed as related to the study treatment ([4]; five subjects): 62.5%
Vital signs and ECG evaluations ([4]; in vivo): No remarkable on study results were noted
Tolerability ([4]; single 175 mg oral dose): well tolerated
Deaths, SAEs, discontinuations due to AEs, other significant AEs ([4]; single 175 mg oral dose, 8 healthy male subjects): no deaths, other SAEs, discontinuations due to AEs, or other significant AEs
Subjects reporting TEAEs ([4]; six of 8 subjects): 75%
Subjects reporting flatulence ([4]; three subjects): 37.5%
Subjects reporting headache ([4]; three subjects): 37.5%
Vomiting after dosing ([4]; within 4 hours of dosing): No subject vomited within 4 hours of dosing
% CV of Cmax, AUC0-t, and AUC0-inf ([5]; 20 mg (FBE) tablet strength): 48-72%
% CV of Cmax, AUC0-t, and AUC0-inf ([5]; 40 mg (FBE) tablet strength): 42-56%
% CV of Cmax, AUC0-t, and AUC0-inf ([5]; 60 mg (FBE) tablet strength): 38-41%
% CV of AUC0-inf ([5]; 140 mg (FBE) capsule): ~39%
% CV of AUC0-t ([5]; 140 mg (FBE) capsule): ~37%
% CV of Cmax ([5]; 140 mg (FBE) capsule): ~43%
% CV of AUC0-inf ([5]; 140 mg (FBE) tablet): ~46%
% CV of AUC0-t ([5]; 140 mg (FBE) tablet): ~44%
% CV of Cmax ([5]; 140 mg (FBE) tablet): about 54%
CL/F ([5]; capsule formulation): 2.69 ± 32 L/h
t1/2 ([5]; capsule formulation): 112 ± 26 h
Tmax ([5]; capsule formulation): 4.00 (2.00, 5.04) h
Cmax ([5]; capsule formulation): 554 ± 43 ng/mL
CL/F ([5]; tablet formulation): 2.61 ± 49 L/h
t1/2 ([5]; tablet formulation): 115 ± 31 h
Tmax ([5]; tablet formulation): 3.49 (1.99, 24.00) h
Cmax ([5]; tablet formulation): 702 ± 54 ng/mL
Oral bioavailability [6]: orally bioavailable
Inhibition of RET in vivo (RET): dose-dependent inhibition
Tumor regression ([7]; human medullary thyroid cancer, human breast cancer, and rat glioma models): marked tumor regression
Tumor growth inhibition ([7]; multiple tumor models): significant tumor growth inhibition
Immunohistochemistry findings ([7]; within 24 hours after administration): rapid effects on the endothelium, vascular breakdown, and tumor cell death
